Reference: ChEMBL document CHEMBL3769371, “1-[(2E)-3-Phenylprop-2-enoyl]-1H-benzimidazoles as anticancer agents: synthesis, crystal structure analysis and binding studies of the most potent anticancer molecule with serum albumin” (Medchemcomm, 2015)

Legend:
SK-MEL-28 = assay: Cytotoxicity against human SK-MEL-28 cells assessed as cell growth at 10^-5 M after 48 hrs by SRB assay; format: functional; details: SK-MEL-28, 48 h, read-out: Activity
Albumin [1] = biological target: T1, Albumin (Homo sapiens, UniProt P02768); assay: Binding affinity to human serum albumin at 0.25 to 2 uM at 298 K by fluorescence microscopic analysis; format: ADME; details: isolated protein
T1 sequence (P02768 whole entry): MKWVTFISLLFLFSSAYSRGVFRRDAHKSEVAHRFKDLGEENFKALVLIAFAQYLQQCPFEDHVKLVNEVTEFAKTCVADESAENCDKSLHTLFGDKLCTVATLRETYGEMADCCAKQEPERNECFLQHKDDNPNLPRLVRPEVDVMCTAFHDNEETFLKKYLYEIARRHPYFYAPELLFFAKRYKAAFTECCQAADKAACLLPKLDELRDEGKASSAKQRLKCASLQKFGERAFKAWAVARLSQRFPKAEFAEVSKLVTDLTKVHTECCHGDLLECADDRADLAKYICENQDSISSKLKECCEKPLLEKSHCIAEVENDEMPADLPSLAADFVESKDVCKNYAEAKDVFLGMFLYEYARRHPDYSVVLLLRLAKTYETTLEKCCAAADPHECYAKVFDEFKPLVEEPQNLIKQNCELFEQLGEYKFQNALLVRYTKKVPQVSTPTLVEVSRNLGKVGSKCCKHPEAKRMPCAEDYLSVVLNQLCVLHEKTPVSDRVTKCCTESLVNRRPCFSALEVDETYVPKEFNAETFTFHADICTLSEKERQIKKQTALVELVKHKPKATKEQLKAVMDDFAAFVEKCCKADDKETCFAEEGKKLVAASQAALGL

A498 = assay: Cytotoxicity against human A498 cells assessed as cell growth at 10^-5 M after 48 hrs by SRB assay; format: functional; details: A498, 48 h, read-out: Activity
Albumin [2] = biological target: T1, Albumin; assay: Binding affinity to human serum albumin assessed Stern-Volmer quenching constant at 0.25 to 2 uM at 308 K by fluorescence microscopic analysis; format: ADME; details: isolated protein
[3] = Cytotoxicity against human HOP92 cells after 48 hrs by SRB assay; format: functional; details: HOP-92, 48 h
Albumin [4] = biological target: T1, Albumin; assay: Binding affinity to human serum albumin at 0.25 uM at 303 K by fluorescence microscopic analysis in the presence of K+; format: ADME; details: isolated protein
[5] = Cytotoxicity against human PC3 cells after 48 hrs by SRB assay; format: functional; details: PC-3, 48 h
SK-MEL-2 [6] = assay: Cytotoxicity against human SK-MEL-2 cells assessed as cell growth at 10^-5 M after 48 hrs by SRB assay; format: functional; details: SK-MEL-2, 48 h, read-out: Activity
Albumin [7] = biological target: T1, Albumin; assay: Binding affinity to human serum albumin at 0.25 to 2 uM at 303 K by fluorescence microscopic analysis in the presence of ibuprofen; format: ADME; details: isolated protein
[8] = Cytotoxicity against human IGROV1 cells after 48 hrs by SRB assay; format: functional; details: IGROV-1, 48 h
T47D = assay: Cytotoxicity against human T47D cells after 48 hrs by SRB assay; format: functional
ACHN [9] = assay: Cytotoxicity against human ACHN cells assessed as cell growth at 10^-5 M after 48 hrs by SRB assay; format: functional; details: read-out: Activity
[10] = Cytotoxicity against human HCC2998 cells assessed as cell growth at 10^-5 M after 48 hrs by SRB assay; format: functional; details: HCC 2998, 48 h, read-out: Activity
[11] = Cytotoxicity against human BT549 cells assessed as cell growth at 10^-5 M after 48 hrs by SRB assay; format: functional; details: BT-549, 48 h, read-out: Activity
[12] = Cytotoxicity against human NCI-ADR-RES cells after 48 hrs by SRB assay; format: functional
[13] = Antiproliferative activity against human IGROV1 cells at 10'5 M; format: functional, IGROV-1
Malme-3M = assay: Cytotoxicity against human MALME-3M cells after 48 hrs by SRB assay; format: functional
[14] = Cytotoxicity against human COLO205 cells after 48 hrs by SRB assay; format: functional; details: COLO 205, 48 h
SK-MEL-2 [15] = assay: Cytotoxicity against human SK-MEL-2 cells after 48 hrs by SRB assay; format: functional; details: SK-MEL-2, 48 h
HT-29 = assay: Cytotoxicity against human HT-29 cells assessed as cell growth at 10^-5 M after 48 hrs by SRB assay; format: functional; details: HT-29, 48 h, read-out: Activity
[16] = Cytotoxicity against human Hs 578T cells after 48 hrs by SRB assay; format: functional
M14 = assay: Cytotoxicity against human M14 cells assessed as cell growth at 10^-5 M after 48 hrs by SRB assay; format: functional; details: M14, 48 h, read-out: Activity
Albumin [17] = biological target: T1, Albumin; assay: Binding affinity to human serum albumin at 0.25 to 2 uM at 288 K by fluorescence microscopic analysis; format: ADME; details: isolated protein
[18] = Cytotoxicity against human SW620 cells after 48 hrs by SRB assay; format: functional; details: SW-620, 48 h
[19] = Cytotoxicity against human LOXIMVI cells assessed as cell growth at 10^-5 M after 48 hrs by SRB assay; format: functional; details: LOX IMVI, read-out: Activity
[20] = Cytotoxicity against human SNB75 cells after 48 hrs by SRB assay; format: functional; details: SNB-75, 48 h
NCI-H460 = assay: Cytotoxicity against human NCI-H460 cells after 48 hrs by SRB assay; format: functional; details: NCI-H460, 48 h
ACHN [21] = assay: Cytotoxicity against human ACHN cells after 48 hrs by SRB assay; format: functional
[22] = Cytotoxicity against human SF295 cells after 48 hrs by SRB assay; format: functional; details: SF-295, 48 h
[23] = Cytotoxicity against human HL-60(TB) cells after 48 hrs by SRB assay; format: functional; details: HL-60, 48 h
[24] = read-out: LC50 (the source's name)

Question: What does the source list for O=C(/C=C/c1ccccc1)n1c(-c2ccc(Cl)cc2)nc2ccccc21?
Answer: growth at 10 µM (SK-MEL-28): -65.4%; K (Albumin [1]): 3.2 ×10⁴ /mol; growth at 10 µM (A498): -14.6%; KSV (Albumin [2]): 1.14 ×10⁵ L/mol; GI50 [3]: 2.72 µM; TGI [3]: 5.17 µM; CC50 [3, 24]: 9.81 µM; K (Albumin [4]): 4.21 ×10³ /mol; GI50 [5]: 1.91 µM; TGI [5]: 6.73 µM; CC50 [5, 24]: 36.3 µM; growth at 10 µM (SK-MEL-2 [6]): -36%; K (Albumin [7]): 5.63 ×10³ /M; GI50 [8]: 1.27 µM; TGI [8]: 2.88 µM; CC50 [8, 24]: 6.53 µM; GI50 (T47D): 1.73 µM; TGI (T47D): 7.68 µM; CC50 (T47D; [24]): 57.5 µM; growth at 10 µM (ACHN [9]): -49.9%; growth at 10 µM [10]: 5.08%; growth at 10 µM [11]: -50.5%; GI50 [12]: 0.75 µM; TGI [12]: 10.3 µM; CC50 [12, 24]: 62.1 µM; growth inhibition (GI) [13]: 89.62%; GI50 (Malme-3M): 0.59 µM; TGI (Malme-3M): 1.91 µM; CC50 (Malme-3M; [24]): 4.77 µM; GI50 [14]: 1.23 µM; TGI [14]: 2.64 µM; CC50 [14, 24]: 5.65 µM; GI50 (SK-MEL-2 [15]): 1.11 µM; TGI (SK-MEL-2 [15]): 3.04 µM; CC50 (SK-MEL-2 [15]; [24]): 8.32 µM; growth at 10 µM (HT-29): -40.6%; GI50 [16]: 2.57 µM; TGI [16]: 17.9 µM; CC50 [16, 24]: > 100 µM; growth at 10 µM (M14): -37.3%; K (Albumin [17]): 2.24 ×10⁵ /mol; GI50 [18]: 1.44 µM; TGI [18]: 2.93 µM; CC50 [18, 24]: 5.97 µM; growth at 10 µM [19]: -82.9%; GI50 [20]: 3.13 µM; TGI [20]: 12.8 µM; CC50 [20, 24]: 40.5 µM; GI50 (NCI-H460): 1.96 µM; TGI (NCI-H460): 6.52 µM; CC50 (NCI-H460; [24]): 25.5 µM; GI50 (ACHN [21]): 1.17 µM; TGI (ACHN [21]): 2.56 µM; CC50 (ACHN [21]; [24]): 5.62 µM; GI50 [22]: 2.1 µM; TGI [22]: 6.14 µM; CC50 [22, 24]: 42.5 µM; GI50 [23]: 1.4 µM; TGI [23]: 4.88 µM; CC50 [23, 24]: > 100 µM
